For 1 molecule, IC50, Activity and inhibition results are on record in ChEMBL document CHEMBL3632525, “Decorated 6,6,7,7-tetrahydro-1H,1H-2,3-biindole scaffold as promising candidate for recognition of the CDK2 allosteric site” (Medchemcomm, 2015).

Active and inactive are the calls of the source. The rule behind the calls is not given here.

For data set [1], the target named is T1, Cyclin-dependent kinase 2 (Homo sapiens, UniProt P24941). Description: Binding affinity to CDK2 allosteric site (unknown origin).
The test system of data set [2] is Vero. As to the kind of experiment: Cytotoxicity against African green monkey Vero cells assessed as reduction of cell viability at 80 to 100 uM by CellTiter-Glo luminescent assay. In kind it is cell-based. Particulars: chlorocebus sabaeus, TDE = time-dependent effect. On the technique in general: ATP-based viability assays read luminescence as a measure of living cells.

Data set [3] has as its system HEp-2. Description: Cytotoxicity against human Hep2 cells assessed as reduction of cell viability at 80 to 100 uM by CellTiter-Glo luminescent assay. The format is functional, cell-based. Particulars: TDE = time-dependent effect.
For data set [4], the system named is Vero. As to the kind of experiment: Inhibition of CDK2 phosphorylation in African green monkey Vero cells at 100 uM after 24 hrs by Western blot analysis relative to control. The format is cell-based. Particulars: Chlorocebus sabaeus. On the technique in general: A western blot detects proteins with antibodies after separation by electrophoresis.
For data set [5], the system named is HEK-293T. Description: Cytotoxicity against HEK293T cells assessed as reduction of cell viability after 24 to 72 hrs by CellTiter-Glo luminescent assay. Particulars: Homo sapiens. The format is functional, cell-based.
The subject of data set [6] is HEp-2. As to the kind of experiment: Cytotoxicity against human Hep2 cells assessed as reduction of cell viability after 24 to 72 hrs by CellTiter-Glo luminescent assay. The format is functional, cell-based.
For data set [7], the target named is T2, Cyclin-dependent kinase 2/cyclin E1 (Homo sapiens) (UniProt P24864+P24941). Description: Inhibition of CDK2/Cyclin E in HEK293T cells assessed as reduction of EGF-stimulated E2F pathway after 24 hrs by dual-Glo luciferase reporter gene assay relative to control. In kind it is cell-based. Particulars: HEK-293T.
Data set [8] deals with Vero. Description: Inhibition of CDK2/Cyclin E in African green monkey Vero cells assessed as reduction of hyperphosphorylated pRB expression at 100 uM after 24 hrs by Western blot analysis relative to control. The format is cell-based. Particulars: Chlorocebus sabaeus.
The target of data set [9] is T2, Cyclin-dependent kinase 2/cyclin E1 (Homo sapiens). As to the kind of experiment: Inhibition of CDK2/Cyclin E in HEK293T cells assessed as reduction of hyperphosphorylated pRB expression at 100 uM after 24 hrs by Western blot analysis relative to control. As to conditions: HEK-293T. In kind it is cell-based.
The target of data set [10] is G1/S-specific cyclin-E1 (Homo sapiens) (UniProt P24864). As to the kind of experiment: Inhibition of cyclin E phosphorylation in human Hep2 cells at 100 uM after 24 hrs by Western blot analysis relative to control. The format is cell-based. Particulars: HEp-2.
Data set [11] deals with Vero. As to the kind of experiment: Cytotoxicity against African green monkey Vero cells assessed as reduction of cell viability after 24 to 72 hrs by CellTiter-Glo luminescent assay. The format is cell-based. As to conditions: chlorocebus sabaeus.
The subject of data set [12] is HEK-293T. Description: Cytotoxicity against HEK293T cells assessed as reduction of cell viability at 80 to 100 uM by CellTiter-Glo luminescent assay. Particulars: Homo sapiens, TDE = time-dependent effect. The format is functional, cell-based.
The target in data set [13] is T2, Cyclin-dependent kinase 2/cyclin E1 (Homo sapiens). As to the kind of experiment: Inhibition of CDK2/Cyclin E in human Hep2 cells assessed as reduction of hyperphosphorylated pRB expression at 100 uM after 24 hrs by Western blot analysis relative to control. The format is cell-based. Particulars: HEp-2.
Data set [14] has as its target T1, Cyclin-dependent kinase 2. Description: Inhibition of CDK2 phosphorylation in HEK293T cells at 100 uM after 24 hrs by Western blot analysis relative to control. The format is cell-based. Particulars: HEK-293T.
The target in data set [15] is G1/S-specific cyclin-E1 (Homo sapiens) (UniProt P24864). Description: Inhibition of cyclin E phosphorylation in HEK293T cells at 100 uM after 24 hrs by Western blot analysis relative to control. As to conditions: HEK-293T. The format is cell-based.
Data set [16] relates to Vero. As to the kind of experiment: Inhibition of cyclin E phosphorylation in African green monkey Vero cells at 100 uM after 24 hrs by Western blot analysis relative to control. In kind it is cell-based. Particulars: Chlorocebus sabaeus.
For data set [17], the target named is T1, Cyclin-dependent kinase 2. As to the kind of experiment: Inhibition of CDK2 phosphorylation in human Hep2 cells at 100 uM after 24 hrs by Western blot analysis relative to control. As to conditions: HEp-2. The format is cell-based.

Sequence of G1/S-specific cyclin-E1 (Homo sapiens) (P24864 whole entry): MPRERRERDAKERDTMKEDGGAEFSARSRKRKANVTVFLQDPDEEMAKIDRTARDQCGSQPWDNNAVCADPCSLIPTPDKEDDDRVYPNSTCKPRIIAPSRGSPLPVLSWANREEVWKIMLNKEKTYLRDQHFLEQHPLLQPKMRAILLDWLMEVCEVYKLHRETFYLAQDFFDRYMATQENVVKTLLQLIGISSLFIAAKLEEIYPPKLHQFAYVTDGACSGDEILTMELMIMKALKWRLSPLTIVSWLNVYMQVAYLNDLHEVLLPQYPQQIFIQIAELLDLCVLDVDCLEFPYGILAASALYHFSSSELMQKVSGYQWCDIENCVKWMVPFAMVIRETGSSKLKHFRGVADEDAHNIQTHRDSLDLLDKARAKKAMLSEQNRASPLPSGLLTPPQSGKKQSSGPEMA

On to `Cc1[nH]c2c(c1C1(C)NC3=C(C(=O)CC(c4ccccc4)C3)C1=O)C(=O)CC(c1ccccc1)C2` (configuration not stated), for which the IC50 – broadly, the midpoint of a concentration-inhibition curve – in data set [1] was more than 91 µM. Moreover, the Activity entry in data set [2] is “tde”; in data set [3] it was “tde”; in [5], “Dose-dependent effect”; in data set [6], “Dose-dependent effect”; in [11], “Dose-dependent effect”; in data set [12], “tde”. Further, the inhibition entry in [4], in data set [8], in [9], in [10], in [13] and in data set [14] was “Active” in each case. Also, the inhibition result in data set [15], in data set [16] and in data set [17] was “Active” throughout. The inhibition entry in data set [7] is “Dose-dependent effect”.
